Experiments:
Assay type in all cases: in vivo
Alopecurus myosuroides [1] = experiment: Herbicidal pre-emergence action; conditions: pre-emergence method, 80 g/ha, greenhouse, visual assessment vs untreated controls
In short: (§1)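 Visual percent effect relative to untreated controls (0% = like control, 100% = dead) assessed three weeks after treatment in the greenhouse. Compounds, as wettable powders in water (600 l/ha, 0.2% wetting agent), were sprayed at different amounts onto covering soil over seeds sown in sandy loam.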

Echinocloa crus-galli [2] = experiment: Herbicidal pre-emergence action; conditions: pre-emergence method, 80 g/ha, greenhouse, visual assessment vs untreated controls
In short: as §1

Lolium multiflorum [3] = experiment: Herbicidal pre-emergence action; conditions: pre-emergence method, 80 g/ha, greenhouse, visual assessment vs untreated controls
In short: as §1

Setaria viridis [4] = experiment: Herbicidal pre-emergence action; conditions: pre-emergence method, 80 g/ha, greenhouse, visual assessment vs untreated controls
In short: as §1

Alopecurus myosuroides [5] = experiment: Herbicidal post-emergence action; conditions: post-emergence method, 80 g/ha
In short: (§2)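 One-leaf-stage greenhouse plants sprayed with WP at graded amounts (600 l/ha, 0.2% wetting agent); ~3 wk later, visual % effect rated vs untreated controls, 100% = dead, 0% = like control.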

Echinocloa crus-galli [6] = experiment: Herbicidal post-emergence action; conditions: post-emergence method, 80 g/ha
In short: as §2

Lolium multiflorum [7] = experiment: Herbicidal post-emergence action; conditions: post-emergence method, 80 g/ha
In short: as §2

Setaria viridis [8] = experiment: Herbicidal post-emergence action; conditions: post-emergence method, 80 g/ha
In short: as §2

[9] = tested on: monocotylidonous and dicotylidonous weed and crop plants; experiment: Herbicidal pre-emergence action (other test plants); conditions: pre-emergence method, 80 g/ha, greenhouse, visual assessment vs untreated controls
In short: as §1

[10] = tested on: monocotylidonous and dicotylidonous weed and crop plants; experiment: Herbicidal post-emergence action (other test plants); conditions: post-emergence method, 80 g/ha
In short: as §2

Structure (SMILES)	herbicidal effect ALOMY (Alopecurus myosuroides [1]) [%]	herbicidal effect ECHCG (Echinocloa crus-galli [2]) [%]	herbicidal effect LOLMU (Lolium multiflorum [3]) [%]	herbicidal effect SETVI (Setaria viridis [4]) [%]	herbicidal effect against ALOMY (Alopecurus myosuroides) (Alopecurus myosuroides [5]) [%]	herbicidal effect against ECHCG (Echinochloa crus-galli) (Echinocloa crus-galli [6]) [%]	herbicidal effect against LOLMU (Lolium multiflorum) (Lolium multiflorum [7]) [%]	herbicidal effect against SETVI (Setaria viridis) (Setaria viridis [8]) [%]	herbicidal effect AVEFA [9] [%]	herbicidal effect against AVEFA (Avena fatua) [10] [%]
Cc1cc(C)c(C2=C(OC(=O)C(C)C)C3CC4(CC3C2=O)OCC(C)CO4)c(C)c1 (stereo not drawn) [I-b-43]	90	20	90	60	100	90	100	100	40	80
CCOC(=O)OC1=C(c2c(CC)cc(C)cc2CC)C(=O)C2CC3(CC12)OCC(C)(C)CO3 (stereo not drawn) [I-c-22]	100	100	100	100	100	100	100	100	70	100
CCC(=O)OC1=C(c2c(CC)cc(C)cc2CC)C(=O)C2CC3(CC12)OCCCO3 (stereo not drawn) [I-b-24]	70	100	100	40	100	100	100	100	70	100
CCC(C)(C)C(=O)OC1=C(c2c(C)cc(C)cc2C)C(=O)C2CC3(COC(C)(C)O3)CC12 (mixture of isomers) [I-b-45]	90	20	60	30	80	90	90	40	40	0
Cc1cc(C)c(C2=C(O)C3CC4(CC3C2=O)OCCO4)c(C)c1 (stereo not drawn) [I-a-39]	80	0	100	30	100	90	100	90	70	20
Cc1cc(C)c(C2=C([O-])C3CC4(CC3C2=O)OCCO4)c(C)c1.[Na+] (stereo not drawn) [I-f-11]	40	0	100	20	60	90	100	80	50	40
CCc1cc(C)cc(C)c1C1=C(OC(=O)OC)C2CC3(COC(C)(C)O3)CC2C1=O (mixture of isomers) [I-c-79]	90	100	100	80	100	100	100	90	80	70
CCOC(=O)OC1=C(c2c(C)cc(C)cc2CC)C(=O)C2CC3(CC12)OCCCCO3 (racemic) [I-c-75]	70	100	100	60	60	100	100	100	60	50
CCc1cc(C)cc(CC)c1C1=C(OC(=O)C(C)C)C2CC3(CC2C1=O)OCC(OCc1ccccc1)CO3 (stereo not drawn) [I-b-17]	90	100	100	90	90	100	100	90	80	90

From patent publication US8367873B2, “Phenyl-substituted bicyclooctane-1,3-dione derivatives” (Bayer Cropscience AG, priority 2008, dated 2013)
